1 compound from ChEMBL document CHEMBL6121066, “Structure-Activity Relationship Studies of DNA Methyltransferase 1 Monovalent Degraders” (J Med Chem, 2025) can be followed below.

Assay [1] concerns the target T1, Histone-arginine methyltransferase CARM1 (Homo sapiens) (UniProt Q86X55).
T1 sequence (whole entry): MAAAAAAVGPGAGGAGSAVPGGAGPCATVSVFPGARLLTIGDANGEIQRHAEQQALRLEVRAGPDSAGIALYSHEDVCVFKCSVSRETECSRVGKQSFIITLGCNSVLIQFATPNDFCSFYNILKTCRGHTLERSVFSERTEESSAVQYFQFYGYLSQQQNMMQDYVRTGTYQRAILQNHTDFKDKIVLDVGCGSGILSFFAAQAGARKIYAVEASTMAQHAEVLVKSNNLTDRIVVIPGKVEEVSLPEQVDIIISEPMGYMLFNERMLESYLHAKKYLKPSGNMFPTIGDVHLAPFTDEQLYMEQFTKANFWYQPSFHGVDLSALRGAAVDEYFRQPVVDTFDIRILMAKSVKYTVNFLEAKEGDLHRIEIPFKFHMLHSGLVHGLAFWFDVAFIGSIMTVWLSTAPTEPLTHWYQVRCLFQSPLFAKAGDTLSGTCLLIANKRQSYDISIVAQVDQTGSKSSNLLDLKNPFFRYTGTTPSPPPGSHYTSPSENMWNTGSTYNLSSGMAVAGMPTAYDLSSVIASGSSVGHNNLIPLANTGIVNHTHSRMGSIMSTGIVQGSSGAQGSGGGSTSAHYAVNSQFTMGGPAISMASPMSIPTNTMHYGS
In words: Inhibition of human PRMT4 using histone H3 and SAM as substrate at 1 uM by radioisotope-based MT HotSpot assay relative to control.

Assay [2] concerns HCT-116. Put plainly: Induction of molecular glue effect mediated DNMT1 degradation in human HCT-116 cells assessed as reduction in DNMT1 protein level at 500 nM measured after 24 hrs by Western blot analysis relative to control. It counts as cell-based. More on the design: scale not given: the % may be the effect or the level left. A general note: A western blot detects proteins with antibodies after separation by electrophoresis.

Assay [3] deals with HCT-116. In words: Induction of molecular glue effect mediated DNMT1 degradation in human HCT-116 cells assessed as reduction in DNMT1 protein level at 500 nM measured after 2 hrs by Western blot analysis relative to control. The format is cell-based. More on the design: scale not given: the % may be the effect or the level left.
Assay [4] addresses Protein arginine N-methyltransferase 1 (Homo sapiens) (UniProt Q99873). In words: Inhibition of human PRMT1 using histone H4 and SAM as substrate at 1 uM by radioisotope-based MT HotSpot assay relative to control.
The test system of assay [5] is HCT-116. Put plainly: (§1) Induction of molecular glue effect mediated DNMT1 degradation in human HCT-116 cells assessed as reduction in DNMT1 protein level incubated for 24 hrs by Western blot analysis. The format is cell-based.
The nature of assay [6]: as §1. The format is cell-based. The note with it: HCT-116, 24 h.
Assay [7] relates to HCT-116. In words: Induction of molecular glue effect mediated DNMT1 degradation in human HCT-116 cells transfected with Smurf2 siRNA assessed as reduction in DNMT1 protein level at 100 nM measured after 24 hrs by Western blot analysis. The format is cell-based.
Assay [8] has as its system HCT-116. Put plainly: Induction of molecular glue effect mediated DNMT1 degradation in human HCT-116 cells transfected with WWP1 siRNA assessed as reduction in DNMT1 protein level at 100 nM measured after 24 hrs by Western blot analysis. It counts as cell-based.
Assay [9] relates to NCI-H1299. In words: Induction of molecular glue effect mediated DNMT1 degradation in human NCI-H1299 cells assessed as reduction in DNMT1 protein level at 100 nM preincubated with MLN4924 for 2 hrs followed by compound addition and measured after 24 hrs by Western blot analysis. The format is cell-based.
A short description of assay [10]: Induction of molecular glue effect mediated DNMT1 degradation in human MDA-MB-468 cells assessed as reduction in DNMT1 protein level incubated for 24 hrs by Western blot analysis. The format is cell-based. The note with it: MDA-MB-468, 24 h.
Assay [11] concerns HCT-116. Put plainly: Induction of molecular glue effect mediated DNMT1 degradation in human HCT-116 cells assessed as reduction in DNMT1 protein level by measuring half-life at 500 nM preincubated with cycloheximide for 2 hrs followed by compound administration and measured after 24 hrs by Western blot analysis. It counts as cell-based.
For assay [12], the system named is NCI-H1299. Put plainly: Effect on DNMT1 mRNA level in human NCI-H1299 cells at 500 nM incubated for 24 hrs by RT-qPCR analysis. It counts as functional, cell-based.
In assay [13] the test system is HCT-116. In words: Induction of molecular glue effect mediated DNMT3A degradation in human HCT-116 cells assessed as reduction in DNMT3A protein level at 500 nM incubated for 24 hrs by Western blot analysis. The format is cell-based.
The test system of assay [14] is HCT-116. In words: Induction of molecular glue effect mediated DNMT1 degradation in human HCT-116 cells assessed as reduction in DNMT1 protein level at 100 nM preincubated with TAK-243 for 2 hrs followed by compound addition and measured after 24 hrs by Western blot analysis. The format is cell-based.
The subject of assay [15] is HCT-116. In words: Induction of molecular glue effect mediated DNMT1 degradation in human HCT-116 cells assessed as reduction in DNMT1 protein level at 100 nM preincubated with TRAF6 inhibitor C25-140 for 2 hrs followed by compound addition and measured after 24 hrs by Western blot analysis. The format is cell-based.
Assay [16] deals with HCT-116. In words: Induction of molecular glue effect mediated DNMT1 degradation in human HCT-116 cells assessed as reduction in DNMT1 protein level at 100 nM preincubated with MG132 for 2 hrs followed by compound addition and measured after 24 hrs by Western blot analysis. It counts as cell-based.
The test system of assay [17] is HCT-116. Put plainly: Downregulation of DNMT1 protein level in human HCT-116 cells at 1 uM incubated for 12 hrs by MS-based global proteomic analysis. It counts as functional, cell-based.
The test system of another assay is MDA-MB-468. Put plainly: Induction of molecular glue effect mediated DNMT1 degradation in human MDA-MB-468 cells assessed as reduction in DNMT1 protein level at 100 nM preincubated with MG132 for 2 hrs followed by compound addition and measured after 24 hrs by Western blot analysis. The format is cell-based.
In assay [18] the test system is HCT-116. Put plainly: Induction of molecular glue effect mediated DNMT1 degradation in human HCT-116 cells transfected with UHRF1 siRNA assessed as reduction in DNMT1 protein level at 100 nM measured after 24 hrs by Western blot analysis. The format is cell-based.

Calls of active or inactive are those of the source. No cut-off for these calls is given here. Where only a bound is given, the exact number is not on record here.

Usually inhibition stands for the drop in the measured response relative to a control, in per cent. By DC50 is commonly meant the concentration giving 50% degradation.

Chain of Protein arginine N-methyltransferase 1 (Homo sapiens) (Q99873 whole entry, looked up): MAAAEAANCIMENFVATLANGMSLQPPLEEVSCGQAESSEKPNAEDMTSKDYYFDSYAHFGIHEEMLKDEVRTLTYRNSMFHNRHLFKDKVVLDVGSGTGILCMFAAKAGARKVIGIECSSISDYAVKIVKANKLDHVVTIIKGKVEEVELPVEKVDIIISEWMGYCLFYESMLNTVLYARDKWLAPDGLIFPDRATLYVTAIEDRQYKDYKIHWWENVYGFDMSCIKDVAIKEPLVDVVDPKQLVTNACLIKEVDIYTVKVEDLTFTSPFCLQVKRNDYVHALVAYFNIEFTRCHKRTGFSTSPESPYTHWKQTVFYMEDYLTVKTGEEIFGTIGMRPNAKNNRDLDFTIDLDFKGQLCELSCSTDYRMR

Regarding `CCc1c(C#N)c(SC(C(N)=O)c2ccccc2)nc(N(C)CC(=O)NC)c1C#N` (centres undefined), the inhibition in assay [1] and in assay [4] was < 20% each time. Besides, the Activity in the assay with HCT-116 [2] was 100%; in the assay on HCT-116 [3] it was 50%; in the assay with HCT-116 [5] it was “Dose-dependent-effect”; in the assay with HCT-116 [18], “Not active; Partial Rescue Of Degradation Observed”. The DC50 in assay [6] was 35 nM; in assay [10], 254 nM. The result in the assay with HCT-116 [7], in the assay on HCT-116 [8], in the assay with NCI-H1299 [9], with HCT-116 [15] and in the assay on HCT-116 [17] was Active. For the same compound, the T1/2 with HCT-116 [11] is < 4 h. Further, the result in the assay with NCI-H1299 [12], with HCT-116 [13], in the assay with HCT-116 [14], with HCT-116 [16] and with MDA-MB-468 was inactive.
